Values quoted from earlier work in US20230190651A1, “Topical Aerosol Foams” (ARCUTIS BIOTHERAPEUTICS, INC., priority 2021, published 2023).
Structures can show the parent of a compound that is named as a salt.

Molecule	Water Solubility
O=C(O)CCCCCCCC(=O)O [azelaic acid]	2,140 mg/liter
C=C1/C(=C\C=C2/CCC[C@]3(C)[C@@H]([C@H](C)/C=C/[C@@H](O)C4CC4)CC[C@@H]23)C[C@@H](O)C[C@@H]1O [calcipotriene]	13.5 mg/L
CCC[C@@H]1C[C@@H](C(=O)N[C@@H]([C@H]2O[C@H](SC)[C@H](OP(=O)(O)O)[C@@H](O)[C@H]2O)[C@H](C)Cl)N(C)C1 [clindamycin phosphate]	250,000 mg/liter
CC(=O)N1CCN(c2ccc(OCC3COC(Cn4ccnc4)(c4ccc(Cl)cc4Cl)O3)cc2)CC1 (stereo not drawn) [ketoconazole]	0.09 mg/L
ivermectin	4 mg/L

More lines, now with the values ahead:

Water Solubility	Molecule
4 mg/L	CCC(=O)O[C@]1(C(=O)CCl)[C@@H](C)C[C@H]2[C@@H]3CCC4=CC(=O)C=C[C@]4(C)[C@@]3(F)[C@@H](O)C[C@@]21C [clobetasol propionate]
59 mg/L	CC1(C)O[C@@H]2C[C@H]3[C@@H]4CCC5=CC(=O)C=C[C@]5(C)[C@H]4[C@@H](O)C[C@]3(C)[C@]2(C(=O)CO)O1 [desonide]
14 mg/L	CCC(=O)O[C@]1(C(=O)CCl)[C@@H](C)C[C@H]2[C@@H]3C[C@H](F)C4=CC(=O)C=C[C@]4(C)[C@@]3(F)[C@@H](O)C[C@@]21C [halobetasol propionate]
145,000 mg/liter	Cc1cc(C(C)(C)C)c(O)c(C)c1CC1=NCCN1 [oxymetazoline hydrochloride]
0.54 mg/L	O=C(Nc1c(Cl)cncc1Cl)c1ccc(OC(F)F)c(OCC2CC2)c1 [roflumilast]
32 mg/L	CCOC(=O)c1ccc(C#Cc2ccc3c(c2)C(C)(C)CCS3)nc1 [tazarotene]
1,190,000 mg/liter	NC(N)=O [urea]
